“Also recorded” adds a separate entry of the source. Where two headings read alike, the source gives them in different places.
Experiments:
[1] = test system: intrahepatic CCA tumors from BDE-Neu-CL24 cells; assay: rat intrahepatic syngeneic CCA metastasis model; format: in vivo; settings: for CCA metastatic spread to the lung (metastatic nodules): rat, 10 mg/kg oral capsule daily for 18 days, versus control capsule, p=0.041, 10 mg/kg
Protocol: Rats received 10 mg/kg (body weight) of the ASPH inhibitor daily for 18 days and sacrificed at day 21 post-surgery
The statistical analysis was performed using the Mann-Whitney U test. *, p<0.05 versus control.
The compound 55 (25 mg/kg) was given by i.p injection, and 10 mg/kg of compound 14c via i.p. injection 3 times per week. N=8-10 in each group.
(§1) The intrahepatic CCA metastatic models weremetastasis model was established with BDE-Neu-CL24 cells. Rats were anesthetized with isoflurane, the abdomen was opened, and the liver inoculated with 3×10^6 BDE-Neu-CL24 cells. The bile duct was then ligated following administration of 0.03 mg/kg of buprenorphine prior to surgery, and four hours after surgery, and the following morning for analgesia as needed. The rats were monitored daily and evaluated for weight change, body condition, and signs of ascites. The oral formulated compound 14c were prepared in capsules at a dose of 10 mg/kg and administered with an oral syringe. The rats were euthanized 18 days post-surgery with Isoflurane and cervical dislocation. Tumors were dissected away from the adjacent liver and weighed. All lung tissues were immersed in Bouin's fixative solution and the metastatic nodules on the surface of the lungs were counted.
Statistical analyses of two groups were done by Student's t-test unless otherwise stated. Equality of variance was examined using F-test. Mann-Whitney U test was used to assess the significance between the two groups with respect to the numbers of metastatic nodules in the rat lung by using the software “R”.
(§2) To evaluate whether compound 14c suppresses CCA metastasis in vivo, we performed experiments in a rat intrahepatic syngeneic CCA model by ligating the bile duct and inoculating rat BDE-neu-CL24 cells into the liver. We first determined that compound 14c inhibited BDE-neu-CL24 cells in vitro (FIG. 4A). The intrahepatic rat model was established and the rats challenged with a control capsule or a capsule containing compound 14c (10 mg/kg, FIG. 4B) orally and daily for 18 days, and animals were sacrificed on day 21 (FIG. 4C). The body weights were measured as a gross indicator of drug toxicity and were not affected compared to vehicle control (FIG. 7). The metastatic spread to the lung surface was determined (FIG. 4D).

[2] = test system: RBE CCA cells; assay: 24-hour transwell cell migration assay, RBE; format: cell-based, human
Protocol: (§3) We used 5×10^4 HuCCT1 and 1×10^5 RBE cells in the migration assay.
(§4) Human cholangiocarcinoma cell lines, HuCCT1, RBE, and SSP25 were purchased from the RIKEN cell line bank. They were cultured in RPMI-1640 medium supplemented with 10% (v/v) fetal bovine serum, 2 mM of L-glutamine, and penicillin/streptomycin. A BDE-Neu cell line and BDE-Neu CL24 were cultured in Dulbecco's modified Eagle's medium supplemented with 10% (v/v) fetal bovine serum, 2 mM of L-glutamine, and penicillin/streptomycin. Plasmids pLKO.1-shRNA-luciferase (shLuc) and pLKO.1-shRNA-ASPH (shASPH) were purchased from Sigma-Aldrich (St. Louis, Mo.).
(§5) The cell migration assay was performed using transwell chambers (pore size: 8 μm, Corning 3422) coated with Matrigel® (Corning 354480). The cell invasion assay was performed by using transwell chambers coated with Matrigel® (Corning 354480) as previously described. In brief, 10^5 cells in 200 μl of serum-free medium were plated in the top chamber and 600 μl of culture medium containing 10% fetal bovine serum was preparedapplied in the lower chamber to stimulate cell for migration. Cells were incubated for 24 hours, fixed with methanol, stained with 10% Giemsa solution, and counted using ImageJ software (National Institute of Health, USA). The results of invasion assay were analyzed as described in the migration assay.

[3] = water solubility; format: physicochemical
[4] = test system: MMP2; assay: immunohistochemistry of primary intrahepatic tumor, MMP2; format: in vivo; settings: rat, 10 mg/kg oral daily
Protocol: (§6) The immunohistochemistry assay was performed as known in the art. Tissue slides were de-paraffined, re-hydrated, and then subjected to antigen-retrieval using the antigen unmasking solution (Vector Inc., H3300). The endogenous peroxidase activity was quenched with 3% H2O2 prepared in methanol. Tissues slides were further blocked with a 5% milk and BSA solution prepared in 1×PBST for 1 hour. The slides were incubated with ASPH, MMP2, and MMP14 antibodies prepared in with 3% BSA in PBS) overnight at 4° C. overnight. The slides were washed with 0.05% TBST three times and then incubated with 1:200 dilution of biotinylated secondary antibody (Vector Laboratories) and the ABC solution (Vector Laboratories) at 20° C. The slides were incubated with DAB substrate to detect positive staining. […] Images were taken using a Nikon microscope and analyzed with Image Pro Plus.
as §2, with “The intrahepatic rat model was established and the rats challenged with a control capsule or a capsule containing compound 14c (10 mg/kg, FIG. 4B) orally and daily for 18 days, and animals were sacrificed on day 21 (FIG. 4C).” left out

[5] = test system: RBE CCA cells; assay: cell invasion assay, matrix-coated Boyden chamber transwell, RBE; format: cell-based; settings: Homo sapiens, 10 μM compound 14c, versus DMSO, read-out: inhibition of cell invasion capacity
Protocol: as §4, §5

[6] = body weights of experimental rats as gross indicator of drug toxicity; format: in vivo; settings: rat, compound 14c 10 mg/kg, measured at the indicated experimental time points, n=8-10
Protocol: There was no difference between the control and experimental groups.
as §1, with “The rats were euthanized 18 days post-surgery with Isoflurane and cervical dislocation. Tumors were dissected away from the adjacent liver and weighed.” left out
as §2, with “The intrahepatic rat model was established and the rats challenged with a control capsule or a capsule containing compound 14c (10 mg/kg, FIG. 4B) orally and daily for 18 days, and animals were sacrificed on day 21 (FIG. 4C).” left out

[7] = test system: MMP14; assay: immunohistochemistry of primary intrahepatic tumor, MMP14; format: in vivo; settings: rat, 10 mg/kg oral daily
Protocol: as §6
as §2, with “The intrahepatic rat model was established and the rats challenged with a control capsule or a capsule containing compound 14c (10 mg/kg, FIG. 4B) orally and daily for 18 days, and animals were sacrificed on day 21 (FIG. 4C).” left out

[8] = test system: HuCCT1 CCA cells; assay: 24-hour transwell cell migration assay, HuCCT1; format: cell-based, human; settings: 10 μM compound 14c, versus DMSO
Protocol: as §3, §4, §5

[9] = target: T1, ASPH (Homo sapiens, UniProt Q12797); assay: ASPH enzymatic (catalytic) activity; format: biochemical
T1 sequence (Q12797 1-758): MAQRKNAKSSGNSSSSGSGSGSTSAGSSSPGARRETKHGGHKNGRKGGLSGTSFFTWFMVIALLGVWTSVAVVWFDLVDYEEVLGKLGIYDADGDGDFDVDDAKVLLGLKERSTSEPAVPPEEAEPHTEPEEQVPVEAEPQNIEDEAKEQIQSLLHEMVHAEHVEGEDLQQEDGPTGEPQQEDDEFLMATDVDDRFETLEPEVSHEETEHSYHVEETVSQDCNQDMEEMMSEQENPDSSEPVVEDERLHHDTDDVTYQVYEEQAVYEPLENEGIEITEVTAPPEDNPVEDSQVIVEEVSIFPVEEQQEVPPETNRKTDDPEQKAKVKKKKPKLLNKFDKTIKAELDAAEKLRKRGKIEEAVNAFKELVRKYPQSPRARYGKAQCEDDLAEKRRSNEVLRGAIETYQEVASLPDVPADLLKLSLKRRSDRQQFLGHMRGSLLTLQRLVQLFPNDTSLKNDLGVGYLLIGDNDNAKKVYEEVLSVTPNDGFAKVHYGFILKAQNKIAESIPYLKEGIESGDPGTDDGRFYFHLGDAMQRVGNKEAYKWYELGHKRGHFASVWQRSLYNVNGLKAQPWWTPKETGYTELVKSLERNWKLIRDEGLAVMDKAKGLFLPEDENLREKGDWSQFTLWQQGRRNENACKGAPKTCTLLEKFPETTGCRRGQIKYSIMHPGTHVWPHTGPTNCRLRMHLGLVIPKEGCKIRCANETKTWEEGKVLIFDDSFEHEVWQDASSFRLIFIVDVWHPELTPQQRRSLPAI
From the text: FIGS. 5A-5B show a scheme for measuring ASPH catalytic activity.

[10] = test system: BDE-neu-CL24 cells; assay: cell migration assay, rat BDE-neu CL24 CCA cells; format: cell-based; settings: 10 μM, versus DMSO
Protocol: as §4, §5

[11] = test system: HuCCT1 CCA cells; assay: cell invasion assay, matrix-coated Boyden chamber transwell, HuCCT1; format: cell-based; settings: Homo sapiens, HuCCT-1, 10 μM compound 14c, versus DMSO, read-out: inhibition of cell invasion capacity
Protocol: as §4, §5

[12] = listed as third generation ASPH inhibitor

SMILES	anti-tumor effects on metastatic spread to the lung ([1]; rat model, 25 mg/kg, daily)	anti-tumor effects on primary tumor growth ([1]; rat model, 25 mg/kg, daily)	reduction of cell migration ([2]; 10 μM compound 14c, 24-hour transwell, versus DMSO)	reduction of RBE CCA cell migration ([2]; comparison of ASPH inhibitor generations, concentration not stated)	water solubility compared to previous generations of ASPH SMIs [3]	water solubility compared to previous generations of ASPH SMIs [3, 12]	effects on CCA progression as compared to compound 55 (FIG. 6A, weight of CCA tumors) ([1]; rat CCA model, compound 14c 10 mg/kg i.p. 3 times per week versus compound 55 25 mg/kg i.p.)	CCA metastatic spread to the lung (metastatic nodules) [1]	CCA metastatic spread to the lung (metastatic nodules) [1, 12]	MMP2 protein expression in primary intrahepatic tumor [4]	inhibition at 10 µM [5]	body weights compared to vehicle control [6]	MMP14 protein expression in primary intrahepatic tumor [7]	reduction of cell migration [8]	inhibitory effects on ASPH (enzymatic) activity compared to previous generations of ASPH SMIs [9]	inhibitory effects on ASPH (enzymatic) activity compared to previous generations of ASPH SMIs [9, 12]	inhibition of BDE-neu-CL24 cells in vitro (cell migration, FIG. 4A) [10]	inhibition at 10 µM [11]
NC1=C(OS(=O)(=O)Cc2ccccc2)C(=O)C(c2ccc(C(F)(F)F)cc2)O1 (stereo not drawn) [compound 55, 2-(4-trifluoromethylphenyl)-4-[[phenylmethylsulfonyl]oxy]-5-amino-3(2H)-furanone]	did not achieve satisfactory anti-tumor effects	did not achieve satisfactory anti-tumor effects	–	–	–	–	–	–	–	–	–	–	–	–	–	–	–	–
COC(=O)c1ccc(C2OC(N)=C(OS(=O)(=O)Cc3ccccc3)C2=O)cc1 (stereo not drawn) [compound 14c]	–	–	70%	approximately 70%	improved water solubility	more water soluble	improved effects	substantially decreased	suppressed	significantly down-regulated	83%	not affected; also recorded: no difference	significantly down-regulated	50%	improved	increased potency	inhibited	60%
